Measurements as given in PubChem BioAssay (NCI).
Values joined by “and” are separate entries in the source; they are usually repeats but may differ in a detail not shown here. Identical values can stand only once.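 Method: 48-hour compound exposure of cells in 96-well plates, five concentrations, linear interpolation of endpoints. GI50 marks 50% less growth. TGI: concentration producing complete growth inhibition.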

Legend:
Assay in all cases: DTP human tumour cell line panel, 48 h
[1] = tested on: A549 NSCLC
[2] = tested on: IGROV1 ovarian
[3] = tested on: MALME-3M melanoma
[4] = tested on: MDA-MB-231 breast
[5] = tested on: MDA-MB-435
[6] = tested on: OVCAR-3 ovarian
[7] = tested on: OVCAR-5 ovarian
[8] = tested on: SF-539 CNS
[9] = tested on: SK-MEL-28 melanoma
[10] = tested on: UACC-62 melanoma

Structure (SMILES) | GI50 [1] | TGI [1] | GI50 [2] | TGI [2] | GI50 [3] | TGI [3] | GI50 [4] [µM] | TGI [4] | GI50 [5] [µM] | TGI [5] [µM] | GI50 [6] | TGI [6] | GI50 [7] | TGI [7] | GI50 [8] | TGI [8] | GI50 [9] [µM] | TGI [9] | GI50 [10] | TGI [10]
Fc1ccc(Nc2nc3nonc3nc2Nc2ccc(I)cc2)cc1 | 0.313 µM | 11.2 µM | 0.217 µM | 13.3 µM | 0.0939 µM | 0.511 µM | 0.31 | 1.72 µM | 0.276 | 10.8 | 0.319 µM | 14.1 µM | 0.373 µM | 20.2 µM | 0.275 µM | 2.58 µM | 0.34 | 4.63 µM | 0.142 µM | 2.16 µM
CC1[C@@H]2CC=C3[C@H]4CCC5Cc6nc7c(nc6C[C@@]5(C)C4CC(=O)[C@]32CO[C@]12OC(C)(C)CC2O)CC1CC[C@@H]2C3=C[C@H]4O[C@@]5(O[C@@](C)(CO)C[C@@H]5O)C(C)[C@@]4(O)[C@]3(C)[C@@H](O)CC2[C@]1(C)C7 (stereo partly drawn) | 0.00051 µM and 0.00133 µM | 0.164 µM and 0.47 µM | 0.00399 µM and 0.0052 µM | – | 0.00807 µM and 0.00577 µM | 0.145 µM and 0.0648 µM | 0.00121 | 0.284 µM | 0.00111 | 0.0168 | 0.0713 µM and 0.498 µM | 0.62 µM and 3.33 µM | 0.013 µM and 0.00425 µM | 0.139 µM and 0.0237 µM | 0.00016 µM and 0.000365 µM | – | 0.00062 | 0.00273 µM | 0.000316 µM and 0.000574 µM | 0.00098 µM and 0.0062 µM
COc1cc2c(cc1OCCCN1CCN(C(=S)SCCC(C#N)(c3ccccc3)c3ccccc3)CC1)N=C[C@@H]1CCCN1C2=O | 1.25 µM | 7.36 µM | 0.381 µM | 1.74 µM | 0.938 µM | 2.19 µM | 1.32 | 3.19 µM | 0.555 | 2.94 | 0.488 µM | 1.26 µM | 1.14 µM | 2.44 µM | 1.45 µM | 3.37 µM | 1.65 | 3.07 µM | 1.13 µM | 2.38 µM
CN(C)CCCCNc1ccc(NCCCCN(C)C)c2c1C(=O)c1c(O)ccc(O)c1C2=O | 1.57 µM | 2.94 µM | 1.52 µM | 3.03 µM | 18.3 µM | 33.5 µM | 1.47 | 2.78 µM | 13.3 | 26.1 | 1.62 µM | 2.97 µM | 1.66 µM | 3.14 µM | 10.9 µM | 24.6 µM | 17.8 | 31.7 µM | 15.3 µM | 29.1 µM
CCOc1ccc2c(c1)C(=O)c1c-2n(CCCN=[N+]=[N-])c(=O)c2cc([N+](=O)[O-])ccc12 | 10.2 µM | > 100 µM | 0.195 µM | 16.1 µM | 15.4 µM | 61.5 µM | 45 | > 100 µM | 39.4 | > 100 | 20 µM | > 100 µM | 6.07 µM | > 100 µM | 3.88 µM | 19 µM | 51.7 | > 100 µM | 2.89 µM | 24.1 µM
O=C(N/N=C/c1ccncc1)c1ccc(F)cc1 | > 40 µM | > 40 µM | > 40 µM | > 40 µM | > 40 µM | > 40 µM | > 40 | > 40 µM | > 40 | > 40 | > 40 µM | > 40 µM | > 40 µM | > 40 µM | > 40 µM | > 40 µM | > 40 | > 40 µM | > 40 µM | > 40 µM
CC[C@@H](C)/C=C(C)/C=C/C(=O)c1c(O)c(-c2ccc(O)cc2)cn(OC2CC(=O)CCC(C)OC(=O)CC2O)c1=O (stereo partly drawn) | 1.74 µM | 15.6 µM | 0.316 µM | 4.66 µM | 0.305 µM | 6.8 µM | 0.85 | 24.3 µM | 0.485 | 19 | 0.284 µM | 14.1 µM | 2.35 µM | 23.3 µM | 0.366 µM | 3.84 µM | 0.552 | 19.5 µM | 0.279 µM | 1.15 µM
Nc1cc(N)c2nc(NCCc3ccc(Cl)c(Cl)c3)cnc2c1 | 17.7 µM | 34.2 µM | 14.5 µM | 28.7 µM | 3.44 µM | 11.1 µM | 4.72 | 16.5 µM | 3.96 | 13.6 | 2.05 µM | 5.3 µM | 20 µM | 34.6 µM | 15.4 µM | 29.8 µM | 13.4 | 26.2 µM | 14.1 µM | 27.8 µM
Cc1[nH]nc(C(=O)N/N=C/c2ccccc2Cl)c1N=NN(C)C | – | > 100 µM | – | > 100 µM | – | > 100 µM | – | > 100 µM | – | > 100 | – | > 100 µM | – | > 100 µM | – | > 29.9 µM | – | > 100 µM | – | > 100 µM
CC(=O)N[C@@H](Cc1ccc(OP(=O)(O)O)cc1)C(=O)N[C@H]1CCC(=O)N2CCC[C@@H](C(=O)NC3CCc4ccccc43)N2C1=O (stereo partly drawn) | > 25 µM | > 25 µM | > 25 µM | > 25 µM | > 25 µM | > 25 µM | > 25 | > 25 µM | > 25 | > 25 | > 25 µM | > 25 µM | > 25 µM | > 25 µM | > 25 µM | > 25 µM | > 25 | > 25 µM | > 25 µM | > 25 µM
CCCCOC(=O)c1c(C)[nH]c(/C=C2\N=C(c3ccc[nH]3)C=C2OC)c1C | 0.205 µM | 15.2 µM | 0.232 µM | 2.39 µM | 1.16 µM | 2.82 µM | 0.056 | 0.764 µM | 0.123 | 1.74 | 0.151 µM | 1.17 µM | 0.337 µM | 2.47 µM | 0.245 µM | 2 µM | 0.509 | 2.8 µM | 0.127 µM | 0.339 µM
COc1ncc(-c2ccc3nccc(C#CCCCCC(=O)NO)c3c2)cc1NS(=O)(=O)c1ccc(F)cc1F | 0.104 µM | 3.17 µM | < 0.0146 µM | 0.559 µM | 0.0604 µM | 0.27 µM | 0.998 | 7.85 µM | 0.132 | 4.83 | 0.0651 µM | 2.52 µM | 0.0634 µM | 8.2 µM | 0.0689 µM | 1.34 µM | 0.0692 | 2.1 µM | < 0.0195 µM | –
CCCCCCCCCC[C@H](O)[C@H]1CC[C@@H]([C@@H](O)CC[C@H](O)[C@@H]2CCC(CCCCCCC[C@@H](O)CC3=C[C@H](C)OC3=O)O2)O1 (stereo partly drawn) | 2.89 µM | 18.5 µM | 5.17 µM | 4.99 µM and 21.1 µM | – | 12.3 µM | – | 7.03 µM and 44.2 µM | 5.07 | – | 3.29 µM | 2.75 µM and 14.2 µM | 12 µM | 28.4 µM | 4.33 µM | 3.86 µM and 25.8 µM | 7.62 | 5.44 µM and 39 µM | – | 3.13 µM
O=C(Nc1cccc(-n2cc(-c3ccncc3)c(-c3ccc(Cl)c(O)c3)n2)c1)Nc1ccc(Cl)c(Cl)c1 | 1.01 µM | > 32.5 µM | 1.77 µM | > 32.5 µM | 1.19 µM | 8.1 µM | 1.18 | 8.33 µM | 1.1 | 6.05 | 1.05 µM | 3.15 µM | 2.4 µM | > 32.5 µM | 1.34 µM | 8.97 µM | 1.46 | 9.85 µM | 1.11 µM | 5.21 µM
CC(=O)ON=C1C=CC(=C(C#N)c2ccccc2)C=C1 | 3.09 µM | > 36 µM | 1 µM | 6.9 µM | 4.01 µM | 20.1 µM | 2.63 | > 28.5 µM | 0.283 | 2.28 | 1.03 µM | 8.41 µM | 3.22 µM | 9.28 µM | 0.671 µM | 11.2 µM | 8.77 | 61.4 µM | 3.78 µM | 25.7 µM
